# Patent US8119629B2, “Carboxamide GABAA α2 modulators” (Bristol-Meyers Squibb Company, priority 2007, dated 2012)
# Counter-ions that a name gives are not always drawn.
# Target: T1, rat GABAA α2β2γ2 Receptors (Rattus norvegicus, UniProt P23576)
# T1 construct: expressed in transfected cells; pIRES Neo2 / Hygro2 / Puro2 vectors
# Assay: PatchXpress 7000A automated parallel patch-clamp: potentiation of GABA EC20 current in HEK293 cells
# Type: cell-based
# Conditions: percent increase in mean GABA EC20 current response; HEK293 cells stably expressing rat GABAA α2β2γ2; voltage-clamped at −60 mV
# Method: Cell Line Generation and Transient Expression. In order to generate stable clonal lines expressing GABAA configurations containing α2β2γ2 subunits, HEK293 cells were transfected with 2 μg of the subunit, using the Invitrogen Lipofectamine PLUS protocol. The following DNA and vector were used for the stable transfection: α2 subunits in pIRES Neo2, β2 subunit in pIRES Hygro2, and a γ2 subunit in pIRES Puro2. Transfectants were selected with G418, Hygromycin B, and Puromycin antibiotics and cloned by limiting dilution. For transient expression, transfections were performed using the Amaxa transfection protocol and 2 μg DNA of the GABAA receptor subunit using Amaxa transfection protocol. Cells were used for experiments 24-72 hrs post transfection.
# PatchXpress® 7000A Automated Parallel Patch-Clamp System. HEK293 cells stably expressing recombinant the rat GABAA/α2β2γ2 configuration were harvested by a single DPBS wash followed by 0.025% Trypsin-EDTA treatment for one minute at room temperature. A 6-ml cell suspension (1.7×10^5 cells/ml) was centrifuged at 500 rpm for 60 s. The cell pellet was gently agitated, suspended in 150 μl extracellular saline buffer, and transferred to a 1.5-ml tube.
# After manually placing the AVIVA Biosciences SealChip 16™ in the holder of the PatchXpress®, the SealChip16™ was automatically prepared for application of the cells. Intracellular solution containing (in mM) CsCl, 135; EGTA, 11; MgCl2, 1; HEPES, 10; ATP, 5; GTP, 0.3 (pH 7.3 with CsOH, 290-300 mOsmol) was injected into the bottom of each chamber, and extracellular solution containing (in mM) NaCl, 140; KCl, 4; CaCl2, 1.8; MgCl2, 1; glucose, 10; HEPES, 10; ATP-K2, 5 (pH 7.4 with NaOH 305-310 mOsmol) was perfused into the top of the chambers through a 16-nozzle wash station. Throughout this period, the pressure controller maintained a positive pressure (+10 mmHg) from the intracellular side to keep the hole free of debris. Seal formation was achieved by a ramp increase in negative pressure from 0 to −35 mmHg at a rate of −3.5 mmHg/s every 10 s until a giga ohm seal was obtained and verified for 30 s.
# Compounds were prepared from fresh DMSO stock and were transferred to a 96-well disposable glass insert compound plate for placement in the PatchXpress®. A full 10 point concentration-response curve for GABA was obtained for the GABA receptor cell line, from which an EC20 was estimated. Test compounds were assayed for their ability to potentiate the current response by an EC20 concentration of GABA. Each experiment began by two consecutive applications of GABA EC20 alone. Following formation of a giga-ohm seal, patch chambers were perfused with extracellular saline for 60 s to remove excess cells from the well. Cells were then voltage-clamped to −60 mV for the duration of the experiment. After 60 s, 30 μl (10 μl/s over 3 s) of GABA EC20 concentration, which elicited a GABA receptor-mediated inward Cl^− current generally in the order of 200-300 pA in peak amplitude, was added to each chamber. The GABA EC20 concentration was then washed out of the recording chamber after 5 s and washing with extracellular saline was continued for 60 s. After another 60 s, a second GABA EC20 concentration was applied under the same paradigm. […] Following the second GABA EC20 application, the lowest concentration of test compound in the presence of the GABA EC20 concentration was similarly applied. Ascending concentrations of the test compound were applied successively to an individual well in the presence of the GABA EC20 concentration.
# Only cells meeting strict predetermined patch-clamp QC parameters, including seal resistance, membrane resistance, and holding current were included in data analysis. GABA current responses in the presence of test compound were measured and expressed as the mean of the initial control GABA EC20 current responses. The peak current amplitude was measured using DataXpress/pCLAMP9 (Axon Instruments). Linear leak subtraction was performed off-line. […]
# T1 sequence (P23576 29-451): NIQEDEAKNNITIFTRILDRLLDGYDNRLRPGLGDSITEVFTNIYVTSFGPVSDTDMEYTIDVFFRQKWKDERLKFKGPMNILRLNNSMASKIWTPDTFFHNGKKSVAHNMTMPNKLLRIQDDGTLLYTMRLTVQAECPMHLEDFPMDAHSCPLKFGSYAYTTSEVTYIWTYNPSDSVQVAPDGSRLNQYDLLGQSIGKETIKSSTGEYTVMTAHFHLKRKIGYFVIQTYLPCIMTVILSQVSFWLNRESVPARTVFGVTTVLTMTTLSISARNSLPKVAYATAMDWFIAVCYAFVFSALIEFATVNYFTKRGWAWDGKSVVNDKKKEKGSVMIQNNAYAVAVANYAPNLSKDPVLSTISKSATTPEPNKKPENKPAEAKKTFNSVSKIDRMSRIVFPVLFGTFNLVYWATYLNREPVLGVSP
# T1 sequence (P63138 25-474 partner limits assumed): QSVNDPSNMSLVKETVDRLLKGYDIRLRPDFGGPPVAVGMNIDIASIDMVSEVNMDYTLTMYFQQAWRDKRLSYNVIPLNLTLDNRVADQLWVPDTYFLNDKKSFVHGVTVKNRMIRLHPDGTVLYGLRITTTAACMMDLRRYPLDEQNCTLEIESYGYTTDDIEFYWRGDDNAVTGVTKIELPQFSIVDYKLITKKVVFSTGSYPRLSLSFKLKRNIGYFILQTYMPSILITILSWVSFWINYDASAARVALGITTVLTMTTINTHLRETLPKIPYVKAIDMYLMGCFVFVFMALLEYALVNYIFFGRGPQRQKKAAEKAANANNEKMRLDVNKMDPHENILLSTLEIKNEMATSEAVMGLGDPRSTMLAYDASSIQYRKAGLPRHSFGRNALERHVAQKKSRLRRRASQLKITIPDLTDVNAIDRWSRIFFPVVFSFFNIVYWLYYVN
# T1 sequence (P18508 39-466 partner): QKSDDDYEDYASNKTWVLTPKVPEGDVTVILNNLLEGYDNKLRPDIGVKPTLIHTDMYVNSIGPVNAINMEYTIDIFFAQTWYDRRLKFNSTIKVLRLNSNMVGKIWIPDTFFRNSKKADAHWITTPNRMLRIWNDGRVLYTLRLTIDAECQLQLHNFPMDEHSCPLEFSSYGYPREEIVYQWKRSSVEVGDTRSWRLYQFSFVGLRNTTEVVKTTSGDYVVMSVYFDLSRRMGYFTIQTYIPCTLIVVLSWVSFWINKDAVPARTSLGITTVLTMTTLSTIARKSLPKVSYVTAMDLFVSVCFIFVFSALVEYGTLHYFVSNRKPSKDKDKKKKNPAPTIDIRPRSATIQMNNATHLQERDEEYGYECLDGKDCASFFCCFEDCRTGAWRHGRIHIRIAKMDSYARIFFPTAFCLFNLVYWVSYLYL
row,Compound,GABAA α2 EP EMAX (%)
1,"N-Cyclopropyl-8-ethynyl-6-phenyl-4H-benzo[f]imidazo[1,5-a][1,4]diazepine-3-carboxamide [Example 11]",** (300% < Emax < 400 **)

# Same assay, conditions: percent increase in mean GABA EC20 current response; HEK293 cells stably expressing rat GABAA α2β2γ2; voltage-clamped at −60 mV; read-out: GABAA α2 EP EMAX (%)
row,Compound,Emax
1,"C#Cc1ccc2c(c1)C(c1ccccc1)=NCc1c(C(=O)NCCCO)ncn1-2 [Example 29, 8-Ethynyl-N-(3-hydroxypropyl)-6-phenyl-4H-benzo[f]imidazo[1,5-a][1,4]diazepine-3-carboxamide dihydrochloride]",300 to 400%
2,"C#Cc1ccc2c(c1)C(c1ccccc1)=NCc1c(C(=O)NCCCCCO)ncn1-2 [Example 30, 8-Ethynyl-N-(5-hydroxypentyl)-6-phenyl-4H-benzo[f]imidazo[1,5-a][1,4]diazepine-3-carboxamide dihydrochloride]",300 to 400%
3,"C#Cc1ccc2c(c1)C(c1ccccc1)=NCc1c(C(=O)NCCCCO)ncn1-2 [Example 31, 8-Ethynyl-N-(4-hydroxybutyl)-6-phenyl-4H-benzo[f]imidazo[1,5-a][1,4]diazepine-3-carboxamide dihydrochloride]",300 to 400%
4,"C#Cc1ccc2c(c1)C(c1ccccc1)=NCc1c(C(=O)NCCOC(C)=O)ncn1-2 [Example 32, 2-(8-Ethynyl-6-phenyl-4H-benzo[f]imidazo[1,5-a][1,4]diazepine-3-carboxamido)ethyl acetate dihydrochloride]",300 to 400%
5,"C#Cc1ccc2c(c1)C(c1ccccc1)=NCc1c(C(=O)NCC(=O)O)ncn1-2 [Example 33, 2-(8-Ethynyl-6-phenyl-4H-benzo[f]imidazo[1,5-a][1,4]diazepine-3-carboxamido)acetic acid]",400 to 500%
6,"C#Cc1ccc2c(c1)C(c1ccccc1F)=NCc1c(C(=O)NCCOC)ncn1-2 [Example 34, 8-Ethynyl-6-(2-fluorophenyl)-N-(2-methoxyethyl)-4H-benzo[f]imidazo[1,5-a][1,4]diazepine-3-carboxamide dihydrochloride]",300 to 400%
7,"C#Cc1ccc2c(c1)C(c1ccccc1)=NCc1c(C(=O)NCc3ccco3)ncn1-2 [Example 35, 8-Ethynyl-N-(furan-2-ylmethyl)-6-phenyl-4H-benzo[f]imidazo[1,5-a][1,4]diazepine-3-carboxamide, dihydrochloride]",200 to 300%
8,"C#Cc1ccc2c(c1)C(c1ccccc1)=NCc1c(C(=O)NCC3CCCO3)ncn1-2 (stereo not shown) [Example 36, 8-Ethynyl-6-phenyl-N-((tetrahydrofuran-2-yl)methyl)-4H-benzo[f]imidazo[1,5-a][1,4]diazepine-3-carboxamide, dihydrochloride]",300 to 400%
9,"C#Cc1ccc2c(c1)C(c1ccccn1)=NCc1c(C(=O)NCCOC)ncn1-2 [Example 37, 8-Ethynyl-N-(2-methoxyethyl)-6-(pyridin-2-yl)-4H-benzo[f]imidazo[1,5-a][1,4]diazepine-3-carboxamide]",200 to 300%
